Positions of bridges follow the written chain, without caps; N, C: chain ends. Non-standard residues stand in square brackets, D forms with d. Residues, ends and D or L forms follow the SMILES beside them. Hyp = O=C(O)[C@@H]1C[C@@H](O)CN1
Legend:
Assay in all cases: cell-based
rα3β2 nAChR = target: T1, rα3β2 nAChR (Rattus norvegicus, UniProt P04757+P12390); details: for inhibition at 10 µM: read-out: inhibition of rα3β2 at 10 μM
T1 construct: expressed in transfected cells; host or cells: Xenopus laevis oocytes injected with cRNA

rα3β4 nAChR = target: T2, rα3β4 nAChR (Rattus norvegicus, UniProt P04757+P12392); details: for inhibition at 10 µM: read-out: inhibition of rα3β4 at 10 μM
T2 construct: expressed in transfected cells; host or cells: Xenopus laevis oocytes injected with cRNA

rα7 nAChR = target: T3, rα7 nAChR (Rattus norvegicus, UniProt Q05941)
T3 construct: expressed in transfected cells; host or cells: Xenopus laevis oocytes injected with cRNA
T3 sequence (Q05941 23-502): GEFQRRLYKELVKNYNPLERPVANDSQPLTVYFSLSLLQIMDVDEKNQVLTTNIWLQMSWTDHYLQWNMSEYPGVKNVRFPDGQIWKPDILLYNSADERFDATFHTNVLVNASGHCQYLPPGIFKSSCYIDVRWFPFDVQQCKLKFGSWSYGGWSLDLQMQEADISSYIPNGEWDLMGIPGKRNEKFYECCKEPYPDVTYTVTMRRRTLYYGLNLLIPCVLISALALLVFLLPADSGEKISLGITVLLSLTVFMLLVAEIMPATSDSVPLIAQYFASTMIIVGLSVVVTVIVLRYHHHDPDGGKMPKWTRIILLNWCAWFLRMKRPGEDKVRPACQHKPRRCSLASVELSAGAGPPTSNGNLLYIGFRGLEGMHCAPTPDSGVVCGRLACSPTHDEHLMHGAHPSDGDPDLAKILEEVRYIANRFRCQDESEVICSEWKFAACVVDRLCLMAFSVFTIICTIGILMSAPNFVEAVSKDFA

T1 sequence (P04757 26-499): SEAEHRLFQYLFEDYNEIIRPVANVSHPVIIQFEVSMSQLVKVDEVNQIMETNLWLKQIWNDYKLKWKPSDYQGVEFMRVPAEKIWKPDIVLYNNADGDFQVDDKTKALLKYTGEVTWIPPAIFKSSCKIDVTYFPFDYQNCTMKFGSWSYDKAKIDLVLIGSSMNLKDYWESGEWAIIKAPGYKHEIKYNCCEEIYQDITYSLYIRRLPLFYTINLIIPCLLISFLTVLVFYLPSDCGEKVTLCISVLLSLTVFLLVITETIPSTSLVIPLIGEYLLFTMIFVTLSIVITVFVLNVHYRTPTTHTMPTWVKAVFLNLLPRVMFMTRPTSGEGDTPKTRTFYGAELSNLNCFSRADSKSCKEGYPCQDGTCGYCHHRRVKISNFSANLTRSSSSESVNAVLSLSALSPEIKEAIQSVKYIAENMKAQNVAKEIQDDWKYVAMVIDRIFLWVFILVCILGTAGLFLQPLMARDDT
T1 sequence (P12390 25-500): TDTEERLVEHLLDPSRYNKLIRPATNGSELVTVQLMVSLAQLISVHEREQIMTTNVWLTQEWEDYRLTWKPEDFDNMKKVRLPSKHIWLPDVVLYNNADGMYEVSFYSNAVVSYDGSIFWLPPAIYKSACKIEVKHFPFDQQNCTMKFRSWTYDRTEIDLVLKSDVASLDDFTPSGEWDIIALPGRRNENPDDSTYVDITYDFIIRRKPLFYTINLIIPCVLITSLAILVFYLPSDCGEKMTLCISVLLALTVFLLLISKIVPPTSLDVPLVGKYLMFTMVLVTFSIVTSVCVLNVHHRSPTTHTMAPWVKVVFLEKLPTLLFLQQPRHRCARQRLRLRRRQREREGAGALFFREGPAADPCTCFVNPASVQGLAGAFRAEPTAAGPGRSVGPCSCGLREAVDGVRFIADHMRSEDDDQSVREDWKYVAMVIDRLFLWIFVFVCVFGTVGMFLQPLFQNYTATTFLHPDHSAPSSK
T2 sequence (P04757 26-499): as the sequence (P04757 26-499) above
T2 sequence (P12392 22-495 limits assumed): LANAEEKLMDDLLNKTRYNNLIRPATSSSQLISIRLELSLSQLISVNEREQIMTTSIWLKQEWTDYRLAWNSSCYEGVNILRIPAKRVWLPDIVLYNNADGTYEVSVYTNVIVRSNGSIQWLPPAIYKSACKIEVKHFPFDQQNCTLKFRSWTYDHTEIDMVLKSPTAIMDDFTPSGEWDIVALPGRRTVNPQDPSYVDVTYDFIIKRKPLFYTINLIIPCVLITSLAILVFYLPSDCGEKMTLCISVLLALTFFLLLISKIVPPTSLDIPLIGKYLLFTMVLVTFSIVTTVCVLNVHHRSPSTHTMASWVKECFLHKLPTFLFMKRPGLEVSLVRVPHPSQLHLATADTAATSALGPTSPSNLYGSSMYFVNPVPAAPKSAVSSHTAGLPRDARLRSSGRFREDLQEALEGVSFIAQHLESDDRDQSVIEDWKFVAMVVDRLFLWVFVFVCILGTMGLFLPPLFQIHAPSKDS

CC[C@H](C)[C@@H]1NC(=O)[C@H](Cc2c[nH]cn2)NC(=O)[C@@H]2CCCN2C(=O)[C@H](CC(N)=O)NC(=O)[C@H](CC(N)=O)NC(=O)[C@H](C(C)C)NC(=O)[C@H](CC(N)=O)NC(=O)[C@@H]2CSSC[C@H](NC(=O)CN)C(=O)N[C@@H](CSSC[C@@H](C(N)=O)NC1=O)C(=O)N[C@@H](CO)C(=O)N[C@@H](CC(C)C)C(=O)N1CCC[C@H]1C(=O)N[C@@H](C)C(=O)N2 [[H5L]RegIIA] (H-GCCSLPACNVNNPHIC-NH2; disulfide 2-8, 3-16)
IC50 (rα3β2 nAChR): > 10000 nM | IC50 (rα3β4 nAChR): > 10000 nM | IC50 (rα7 nAChR): > 10000 nM

CC[C@H](C)[C@@H]1NC(=O)[C@H](Cc2c[nH]cn2)NC(=O)[C@@H]2CCCN2C(=O)[C@H](CC(N)=O)NC(=O)[C@H](CC(N)=O)NC(=O)[C@H](C(C)C)NC(=O)[C@H](CC(N)=O)NC(=O)[C@@H]2CSSC[C@H](NC(=O)CN)C(=O)N[C@@H](CSSC[C@@H](C(N)=O)NC1=O)C(=O)N[C@@H](CO)C(=O)N[C@@H](CO)C(=O)N1CCC[C@H]1C(=O)N[C@@H](C)C(=O)N2 [[H5S]RegIIA] (H-GCCSSPACNVNNPHIC-NH2; disulfide 2-8, 3-16)
IC50 (rα3β2 nAChR): > 10000 nM | IC50 (rα3β4 nAChR): 5730 nM | IC50 (rα7 nAChR): 100 nM

CC[C@H](C)[C@@H]1NC(=O)[C@H](Cc2c[nH]cn2)NC(=O)[C@@H]2CCCN2C(=O)[C@H](CC(N)=O)NC(=O)[C@H](CC(N)=O)NC(=O)[C@H](C(C)C)NC(=O)[C@H](CC(N)=O)NC(=O)[C@@H]2CSSC[C@H](NC(=O)CN)C(=O)N[C@@H](CSSC[C@@H](C(N)=O)NC1=O)C(=O)N[C@@H](CO)C(=O)N[C@@H](Cc1c[nH]cn1)C(=O)N1C[C@H](O)C[C@H]1C(=O)N[C@@H](C)C(=O)N2 [[P6O]RegIIA] (H-GCCSH[Hyp]ACNVNNPHIC-NH2; disulfide 2-8, 3-16)
IC50 (rα3β2 nAChR): > 10000 nM | IC50 (rα3β4 nAChR): > 10000 nM | IC50 (rα7 nAChR): > 10000 nM

CC[C@H](C)[C@@H]1NC(=O)[C@H](Cc2c[nH]cn2)NC(=O)[C@@H]2CCCN2C(=O)[C@H](CC(N)=O)NC(=O)[C@H](CC(N)=O)NC(=O)[C@H](C(C)C)NC(=O)[C@H](CC(N)=O)NC(=O)[C@@H]2CSSC[C@H](NC(=O)[C@H](C)N)C(=O)N[C@@H](CSSC[C@@H](C(N)=O)NC1=O)C(=O)N[C@@H](CO)C(=O)N[C@@H](Cc1c[nH]cn1)C(=O)N1CCC[C@H]1C(=O)N[C@@H](C)C(=O)N2 [[G1A]RegIIA] (H-ACCSHPACNVNNPHIC-NH2; disulfide 2-8, 3-16)
IC50 (rα3β2 nAChR): 90 nM | IC50 (rα3β4 nAChR): 132 nM | IC50 (rα7 nAChR): 286 nM

CC[C@H](C)[C@@H]1NC(=O)[C@H](Cc2c[nH]cn2)NC(=O)[C@@H]2CCCN2C(=O)[C@H](CC(N)=O)NC(=O)[C@H](CC(N)=O)NC(=O)[C@H](C(C)C)NC(=O)[C@H](CC(N)=O)NC(=O)[C@@H]2CSSC[C@H](NC(=O)CN)C(=O)N[C@@H](CSSC[C@@H](C(N)=O)NC1=O)C(=O)N[C@@H](CO)C(=O)N[C@@H](Cc1c[nH]cn1)C(=O)N[C@@H](C)C(=O)N[C@@H](C)C(=O)N2 [[P6A]RegIIA] (H-GCCSHAACNVNNPHIC-NH2; disulfide 2-8, 3-16)
IC50 (rα3β2 nAChR): > 10000 nM | inhibition at 10 µM (rα3β2 nAChR): < 50% | IC50 (rα3β4 nAChR): > 10000 nM | inhibition at 10 µM (rα3β4 nAChR): < 50% | IC50 (rα7 nAChR): 459 nM

CC[C@H](C)[C@@H]1NC(=O)[C@H](Cc2c[nH]cn2)NC(=O)[C@@H]2CCCN2C(=O)[C@H](CC(N)=O)NC(=O)[C@H](CC(N)=O)NC(=O)[C@H](C(C)C)NC(=O)[C@H](CC(N)=O)NC(=O)[C@@H]2CSSC[C@H](NC(=O)CN)C(=O)N[C@@H](CSSC[C@@H](C(N)=O)NC1=O)C(=O)N[C@@H](CO)C(=O)N[C@@H](CCC(=O)O)C(=O)N1CCC[C@H]1C(=O)N[C@@H](C)C(=O)N2 [[H5E]RegIIA] (H-GCCSEPACNVNNPHIC-NH2; disulfide 2-8, 3-16)
IC50 (rα3β2 nAChR): > 10000 nM | IC50 (rα3β4 nAChR): > 10000 nM | IC50 (rα7 nAChR): 441 nM

CC[C@H](C)[C@@H]1NC(=O)[C@H](Cc2c[nH]cn2)NC(=O)[C@@H]2CCCN2C(=O)[C@H](CC(N)=O)NC(=O)[C@H](CC(N)=O)NC(=O)[C@H](C(C)C)NC(=O)[C@H](CC(N)=O)NC(=O)[C@@H]2CSSC[C@H](NC(=O)CN)C(=O)N[C@@H](CSSC[C@@H](C(N)=O)NC1=O)C(=O)N[C@@H](C)C(=O)N[C@@H](Cc1c[nH]cn1)C(=O)N1CCC[C@H]1C(=O)N[C@@H](C)C(=O)N2 [[S4A]RegIIA] (H-GCCAHPACNVNNPHIC-NH2; disulfide 2-8, 3-16)
IC50 (rα3β2 nAChR): 34 nM | IC50 (rα3β4 nAChR): 95 nM | IC50 (rα7 nAChR): 39 nM

CC[C@H](C)[C@@H]1NC(=O)[C@H](Cc2cnc[nH]2)NC(=O)[C@@H]2CCCN2C(=O)[C@H](CC(N)=O)NC(=O)[C@H](CC(N)=O)NC(=O)[C@H](C(C)C)NC(=O)[C@H](CC(N)=O)NC(=O)[C@@H]2CSSC[C@H](NC(=O)CN)C(=O)N[C@@H](CSSC[C@@H](C(N)=O)NC1=O)C(=O)N[C@@H](CO)C(=O)N[C@@H](Cc1cnc[nH]1)C(=O)N1CCC[C@H]1C(=O)N[C@@H](C)C(=O)N2 [RegIIA, reference compound] (H-GCCSHPACNVNNPHIC-NH2; disulfide 2-8, 3-16)
IC50 (rα3β2 nAChR): 36 nM | IC50 (rα3β4 nAChR): 102 nM | IC50 (rα7 nAChR): 43 nM

CC[C@H](C)[C@@H]1NC(=O)[C@H](Cc2c[nH]cn2)NC(=O)[C@@H]2CCCN2C(=O)[C@H](CC(N)=O)NC(=O)[C@H](CC(N)=O)NC(=O)[C@H](C(C)C)NC(=O)[C@H](CC(N)=O)NC(=O)[C@@H]2CSSC[C@H](NC(=O)CN)C(=O)N[C@@H](CSSC[C@@H](C(N)=O)NC1=O)C(=O)N[C@@H](CO)C(=O)N[C@@H](C(C)C)C(=O)N1CCC[C@H]1C(=O)N[C@@H](C)C(=O)N2 [[H5V]RegIIA] (H-GCCSVPACNVNNPHIC-NH2; disulfide 2-8, 3-16)
IC50 (rα3β2 nAChR): > 10000 nM | IC50 (rα3β4 nAChR): 8800 nM | IC50 (rα7 nAChR): 97 nM

CC[C@H](C)[C@@H]1NC(=O)[C@H](Cc2c[nH]cn2)NC(=O)[C@@H]2CCCN2C(=O)[C@H](CC(N)=O)NC(=O)[C@H](CC(N)=O)NC(=O)[C@H](C(C)C)NC(=O)[C@H](CC(N)=O)NC(=O)[C@@H]2CSSC[C@H](NC(=O)CN)C(=O)N[C@@H](CSSC[C@@H](C(N)=O)NC1=O)C(=O)N[C@@H](CO)C(=O)N[C@@H](C)C(=O)N1CCC[C@H]1C(=O)N[C@@H](C)C(=O)N2 [[H5A]RegIIA] (H-GCCSAPACNVNNPHIC-NH2; disulfide 2-8, 3-16)
IC50 (rα3β2 nAChR): > 10000 nM | inhibition at 10 µM (rα3β2 nAChR): < 50% | IC50 (rα3β4 nAChR): > 10000 nM | inhibition at 10 µM (rα3β4 nAChR): < 50% | IC50 (rα7 nAChR): 446 nM

CC[C@H](C)[C@@H]1NC(=O)[C@H](Cc2c[nH]cn2)NC(=O)[C@@H]2CCCN2C(=O)[C@H](CC(N)=O)NC(=O)[C@H](CC(N)=O)NC(=O)[C@H](C(C)C)NC(=O)[C@H](CC(N)=O)NC(=O)[C@@H]2CSSC[C@H](NC(=O)CN)C(=O)N[C@@H](CSSC[C@@H](C(N)=O)NC1=O)C(=O)N[C@@H](CO)C(=O)N[C@@H](Cc1c[nH]cn1)C(=O)N1CCC[C@H]1C(=O)NCC(=O)N2 [[A7G]RegIIA] (H-GCCSHPGCNVNNPHIC-NH2; disulfide 2-8, 3-16)
IC50 (rα3β2 nAChR): > 10000 nM | IC50 (rα3β4 nAChR): 964 nM | IC50 (rα7 nAChR): 600 nM

CC[C@H](C)[C@@H]1NC(=O)[C@H](Cc2c[nH]cn2)NC(=O)[C@@H]2CCCN2C(=O)[C@H](CC(N)=O)NC(=O)[C@H](CC(N)=O)NC(=O)[C@H](C(C)C)NC(=O)[C@H](CC(N)=O)NC(=O)[C@@H]2CSSC[C@H](NC(=O)CN)C(=O)N[C@@H](CSSC[C@@H](C(N)=O)NC1=O)C(=O)N[C@@H](CO)C(=O)NCC(=O)N1CCC[C@H]1C(=O)N[C@@H](C)C(=O)N2 [[H5G]RegIIA] (H-GCCSGPACNVNNPHIC-NH2; disulfide 2-8, 3-16)
IC50 (rα3β2 nAChR): > 10000 nM | IC50 (rα3β4 nAChR): > 10000 nM | IC50 (rα7 nAChR): 3540 nM
